{"source": "patent US11020414B2", "about": "“Antimicrobial compositions with cysteamine” (priority 2010, dated 2021)", "key": {"[1]": {"test_system": "Pseudomonas aeruginosa Pa058", "experiment": "MIC determination, strain Pa058", "type": "cell-based", "description": "(§1) The bacterial inoculum was established by the dilution method from actively-growing cultures in Mueller-Hinton (MH) broth, standardized with 0.5 McFarland turbidity standard as described in the CLSI method M26-A.\n(§2) Both the bacterial inoculum and the antimicrobial agents, including the compounds structurally related to cysteamine, were added simultaneously to the plates. The plates were incubated at 37° C. for 24 h and the optical density was read at 625 nm on a microtitre plate reader (BioTek Powerwave XS, Winooski, USA). […]\n(§3) A number of compounds related in chemical structure to cysteamine were examined for antimicrobial activity; cystamine (dihydrochloride salt), taurine and 2,3-dimercaptosuccinic acid. Other compounds chemically related to cysteamine are known, but are toxic, and are therefore of no utility in a drug of this nature."}, "[2]": {"test_system": "P. aeruginosa PAO1 planktonic cells", "experiment": "MIC in physiologically-relevant ionic concentrations (FIG. 7)", "type": "cell-based, Pseudomonas aeruginosa", "description": "Bacterial growth was followed over a 24 h period and absorbance read using a BioTek microtitre plate reader at 625 nm. Total bacterial growth inhibition was retained in the presence of NaCl, CaCl2 or DNA and at two-fold the normal MIC100 in the presence of mucin. Tobramycin activity was inhibited in the presence of the divalent cation ca^2+ and in the presence of the anionic polymer DNA. […] A similar method as described above (1.4) was used for the determination of the antimicrobial activity of cysteamine (Lynovex®) in the presence of high ionic concentrations. […] Bacterial growth was followed over a 24 h period and absorbance read using a BioTek microtitre plate reader at 625 nm."}, "[3]": {"test_system": "Burkholderia cepacia NCTC10744", "experiment": "MIC100 and FIC of cysteamine and tobramycin, MH broth (CLSI) and artificial sputum medium", "type": "cell-based", "details": "read-out: MIC100, agent alone", "description": "(§4) Both the bacterial inoculum and the antimicrobial agents, including the compounds structurally related to cysteamine, were added simultaneously to the plates. The plates were incubated at 37° C. for 24 h and the optical density was read at 625 nm on a microtitre plate reader (BioTek Powerwave XS, Winooski, USA). The MIC was obtained as the lowest concentration of antimicrobial showing total inhibition of bacterial growth.\n(§5) The FIC corresponds to an interaction coefficient indicating whether the combination of antimicrobial agents is synergistic, additive, antagonist or neutral. The FIC is determined by comparing the activity of an agent in combination (MIC of agent A+agent B) with the activity of the agent alone (MIC of agent A or agent B) as follow (Singh et al., 2000): FIC=MICA[combination]/MICA[alone]+MICB[combination]/MICB[alone]\n(§6) The complex pathophysiology of CF is characterized by airway obstruction caused by abnormal mucus secretion and infection, with 60-80% of patients being chronically infected with the biofilm-forming bacteria Pseudomonas aeruginosa (George et al., 2009). With a prevalence of up to 10% in adult CF patients, B. cepacia complex is a rare but major concern due to its high virulence, morbidity and transmissibility (O'Malley, 2009; Brüssow, 2012). We tested the antimicrobial activity of cysteamine-tobramycin combinations in artificial sputum medium (Yang, et al., 2011) against 4 P. aeruginosa (PAO1, ATCC27853, DSMZ1128 and DSMZ1299) and 2 B. cepacia complex strains (NCTC10743 and NCTC10744)."}, "[4]": {"test_system": "Burkholderia cepacia NCTC10743", "experiment": "MIC100 and FIC of cysteamine and tobramycin, MH broth (CLSI) and artificial sputum medium", "type": "cell-based", "description": "as §4, §5, §6"}, "[5]": {"test_system": "Pseudomonas aeruginosa Pa14", "experiment": "MIC determination, strain Pa14", "type": "cell-based", "description": "as §1, §2, §3"}, "[6]": {"test_system": "Pseudomonas aeruginosa Pa57388A", "experiment": "FIC index of combinations with conventional antibiotics, strain Pa57388A", "type": "cell-based", "details": "strain Pa57388A (Col^R), listed as Cysteamine (NM001)", "description": "as §1, §4, §5\nAdditive combinations of two antimicrobial agents are indicated by a FIC index of 1, whereas a FIC index<1 indicates synergistic combinations. Neutral combinations would give a FIC between 1 and 4, a FIC index higher than 4 indicates antagonist effects between the two antimicrobial agents.\nThe FIC was also calculated to assess the interaction of two antimicrobial agents in combination against bacterial samples."}}, "note": "Values joined by “and” are separate entries in the source; they are usually repeats but may differ in a detail not shown here. Equal values may be shown once. Read-outs that look alike come from different tables or passages of the source.", "data": [{"smiles": "NCCS", "note": "[Cysteamine, cysteamine]", "values": [{"measurement": "MIC50", "setting": "[1]", "value": 500, "unit": "µg/mL"}, {"measurement": "MIC90", "setting": "[1]", "value": 1000, "unit": "µg/mL"}, {"measurement": "MIC", "setting": "[1]; read-out: MIC100", "value": 1000, "unit": "µg/mL"}, {"measurement": "total bacterial growth inhibition (MIC100) versus normal condition", "setting": "[2]; in the presence of 150 mM NaCl, 1.7 mM CaCl2 or 1 mg/ml DNA", "value": "retained"}, {"measurement": "concentration for total growth inhibition relative to the normal MIC100", "setting": "[2]; in the presence of 1% (w/v) porcine gastric mucin", "value": "two-fold"}, {"measurement": "MIC", "setting": "[3]; NCTC10744, B. cepacia NH10744, ASM (Artificial Sputum Medium)", "value": 500, "unit": "µg/mL"}, {"measurement": "MIC", "setting": "[3]; NCTC10744, B. cepacia NH10744, CLSI", "value": 250, "unit": "µg/mL"}, {"measurement": "MIC", "setting": "[4]; NCTC10743, B. cepacia NCTC10743, FIG. 6, read-out: MIC100, agent alone", "value": 500, "unit": "µg/mL"}, {"measurement": "MIC", "setting": "[4]; NCTC10743, B. cepacia NCTC10743, in both media (MH broth and ASM), FIG. 11, read-out: MIC100, agent alone", "value": 500, "unit": "µg/mL"}, {"measurement": "MIC", "setting": "[4]; NCTC10743, B. cepacia NH10743, ASM (Artificial Sputum Medium), read-out: MIC100, agent alone", "value": 500, "unit": "µg/mL"}, {"measurement": "MIC", "setting": "[4]; NCTC10743, B. cepacia NH10743, CLSI, read-out: MIC100, agent alone", "value": 250, "unit": "µg/mL"}, {"measurement": "MIC50", "setting": "[5]", "value": "125 to 250", "unit": "µg/mL"}, {"measurement": "MIC90", "setting": "[5]", "value": 500, "unit": "µg/mL"}, {"measurement": "MIC", "setting": "[5]; read-out: MIC100", "value": 1330, "unit": "µg/mL"}, {"measurement": "FICI (Additive) Cip", "setting": "[6]; in combination with Ciprofloxacin", "value": 0.63}, {"measurement": "FICI (Additive) Col", "setting": "[6]; in combination with Colistin", "value": "0.52 and 0.51 and 0.63 and 0.56"}, {"measurement": "FICI (Synergy) Col", "setting": "[6]; in combination with Colistin", "value": "0.38 and 0.31"}, {"measurement": "FICI (Additive) Gent", "setting": "[6]; in combination with Gentamicin", "value": "0.5 and 0.56 and 0.75"}, {"measurement": "FICI (Synergy) Gent", "setting": "[6]; in combination with Gentamicin", "value": 0.38}, {"measurement": "FICI (Additive) Tob", "setting": "[6]; in combination with Tobramycin", "value": "0.63 and 0.75 and 0.5 and 0.56"}, {"measurement": "FICI (Synergy) Tob", "setting": "[6]; in combination with Tobramycin", "value": "0.31 and 0.38"}]}]}
